In ChEMBL document CHEMBL5727989, “Compounds useful as inhibitors of ATR kinase” (2020):

Each compound was assayed against Serine/threonine-protein kinase ATR (Homo sapiens, UniProt Q13535) (assay: Inhibition Assay: Assays were carried out at 25° C. in the presence of 5 nM full-length ATR. An assay stock buffer solution was prepared containing all of the reagents listed above, with the exception of ATP and the test compound of interest. 13.5 μL of the stock solution was placed in a 96 well plate followed by addition of 2 μL of DMSO stock containing serial dilutions of the test compound (typically starting from a final concentration of 15 μM with 3-fold serial dilutions) in duplicate (final DMSO concentration 7%). The plate was pre-incubated for 10 minutes at 25° C. and the reaction initiated by addition of 15 μL [γ-33P]ATP (final concentration 10 μM). The reaction was stopped after 24 hours by the addition of 30 μL 0.1M phosphoric acid containing 2 mM ATP. A multiscreen phosphocellulose filter 96-well plate (Millipore, Cat no. MAPHN0B50) was pretreated with 100 μL 0.2M phosphoric acid prior to the addition of 45 μL of the stopped assay mixture. The plate was washed with 5×200 μL 0.2M phosphoric acid. After drying, 100 μL Optiphase SuperMix liquid scintillation cocktail (Perkin Elmer) was added to the well prior to scintillation counting (1450 Microbeta Liquid Scintillation Counter, Wallac).).
Serine/threonine-protein kinase ATR, sequence (Q13535 whole entry): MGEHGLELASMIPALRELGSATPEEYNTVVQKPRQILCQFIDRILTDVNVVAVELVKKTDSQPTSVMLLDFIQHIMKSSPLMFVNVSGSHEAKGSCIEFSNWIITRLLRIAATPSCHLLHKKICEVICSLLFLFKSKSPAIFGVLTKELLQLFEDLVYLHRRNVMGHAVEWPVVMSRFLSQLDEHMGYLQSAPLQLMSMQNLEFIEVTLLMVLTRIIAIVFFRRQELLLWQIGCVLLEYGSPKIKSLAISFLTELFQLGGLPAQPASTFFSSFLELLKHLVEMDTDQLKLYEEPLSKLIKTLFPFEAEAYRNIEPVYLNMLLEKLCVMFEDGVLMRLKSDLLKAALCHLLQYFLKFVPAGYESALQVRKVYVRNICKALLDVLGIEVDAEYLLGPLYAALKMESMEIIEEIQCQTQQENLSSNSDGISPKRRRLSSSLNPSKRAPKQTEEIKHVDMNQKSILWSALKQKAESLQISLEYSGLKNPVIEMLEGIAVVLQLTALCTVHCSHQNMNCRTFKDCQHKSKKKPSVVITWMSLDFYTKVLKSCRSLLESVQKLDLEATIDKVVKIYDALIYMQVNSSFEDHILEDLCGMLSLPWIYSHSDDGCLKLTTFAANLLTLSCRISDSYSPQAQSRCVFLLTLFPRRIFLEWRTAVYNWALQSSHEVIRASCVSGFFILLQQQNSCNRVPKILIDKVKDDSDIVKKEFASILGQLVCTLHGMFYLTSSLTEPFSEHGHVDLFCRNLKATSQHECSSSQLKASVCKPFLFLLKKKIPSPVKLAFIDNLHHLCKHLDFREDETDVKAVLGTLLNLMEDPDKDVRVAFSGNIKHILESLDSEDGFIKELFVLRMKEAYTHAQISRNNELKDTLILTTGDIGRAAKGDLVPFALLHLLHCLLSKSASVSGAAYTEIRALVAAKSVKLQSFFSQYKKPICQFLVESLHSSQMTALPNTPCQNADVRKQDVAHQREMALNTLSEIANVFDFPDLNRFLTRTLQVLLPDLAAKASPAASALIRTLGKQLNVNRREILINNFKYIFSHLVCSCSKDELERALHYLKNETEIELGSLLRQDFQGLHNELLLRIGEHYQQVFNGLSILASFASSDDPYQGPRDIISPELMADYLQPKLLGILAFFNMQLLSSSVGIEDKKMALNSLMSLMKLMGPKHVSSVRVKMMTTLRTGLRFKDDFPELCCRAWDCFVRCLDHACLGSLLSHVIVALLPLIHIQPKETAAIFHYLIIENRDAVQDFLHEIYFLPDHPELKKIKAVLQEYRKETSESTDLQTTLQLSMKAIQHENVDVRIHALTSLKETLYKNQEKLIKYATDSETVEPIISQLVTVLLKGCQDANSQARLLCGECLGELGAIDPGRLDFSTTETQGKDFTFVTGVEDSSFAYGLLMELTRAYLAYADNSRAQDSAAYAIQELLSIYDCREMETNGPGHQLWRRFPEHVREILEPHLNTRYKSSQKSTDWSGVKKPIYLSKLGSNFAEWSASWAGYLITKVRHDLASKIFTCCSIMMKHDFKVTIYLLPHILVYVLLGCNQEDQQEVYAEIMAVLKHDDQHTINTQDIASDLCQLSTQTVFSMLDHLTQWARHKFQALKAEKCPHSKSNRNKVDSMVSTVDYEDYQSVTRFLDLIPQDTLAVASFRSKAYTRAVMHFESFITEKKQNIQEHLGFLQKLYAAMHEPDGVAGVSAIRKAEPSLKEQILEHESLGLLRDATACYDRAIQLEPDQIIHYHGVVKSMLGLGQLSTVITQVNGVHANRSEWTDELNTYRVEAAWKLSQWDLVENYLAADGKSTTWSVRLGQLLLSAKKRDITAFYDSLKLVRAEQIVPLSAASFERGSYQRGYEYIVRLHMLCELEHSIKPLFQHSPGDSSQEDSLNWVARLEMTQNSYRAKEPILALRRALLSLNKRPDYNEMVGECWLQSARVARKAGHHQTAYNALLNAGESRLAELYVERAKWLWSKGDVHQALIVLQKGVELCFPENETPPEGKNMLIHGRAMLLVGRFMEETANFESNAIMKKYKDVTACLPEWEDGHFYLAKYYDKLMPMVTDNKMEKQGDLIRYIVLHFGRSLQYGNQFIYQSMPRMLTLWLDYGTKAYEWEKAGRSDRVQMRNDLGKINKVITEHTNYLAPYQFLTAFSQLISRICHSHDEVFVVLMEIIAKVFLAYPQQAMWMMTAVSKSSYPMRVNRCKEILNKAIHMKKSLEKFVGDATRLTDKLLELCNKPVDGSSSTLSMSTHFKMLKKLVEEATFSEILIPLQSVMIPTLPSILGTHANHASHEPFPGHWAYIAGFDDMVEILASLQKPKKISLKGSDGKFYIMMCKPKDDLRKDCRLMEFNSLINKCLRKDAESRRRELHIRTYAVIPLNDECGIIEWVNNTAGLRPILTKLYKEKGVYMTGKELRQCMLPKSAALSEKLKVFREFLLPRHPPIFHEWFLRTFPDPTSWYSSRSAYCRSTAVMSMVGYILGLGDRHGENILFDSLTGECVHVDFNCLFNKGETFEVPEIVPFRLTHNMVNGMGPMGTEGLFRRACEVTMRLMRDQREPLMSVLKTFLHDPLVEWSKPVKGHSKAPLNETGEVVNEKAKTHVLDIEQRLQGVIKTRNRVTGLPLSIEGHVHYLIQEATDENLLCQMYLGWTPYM

SMILES	Ki
Nc1nn2cc(F)cnc2c1C(=O)Nc1cnccc1N1CCOCC1	in the range around 505 nM
Nc1nn2cc(F)cnc2c1C(=O)Nc1cnccc1N1CCCCC1	in the range around 505 nM
Cc1nn(C)cc1-c1ccncc1NC(=O)c1c(N)nn2cc(F)cnc12	in the range around 505 nM

Second part, the compound after the results:

Ki	SMILES
in the range around 505 nM	COC1CCN(c2ccncc2NC(=O)c2c(N)nn3cc(F)cnc23)CC1
in the range around 505 nM	CNC(=O)C1CCN(c2c(F)cncc2NC(=O)c2c(N)nn3cc(F)cnc23)CC1
in the range around 505 nM	CN(C)CCNC(=O)C1CCN(c2c(F)cncc2NC(=O)c2c(N)nn3cc(F)cnc23)CC1
